Where two headings read alike, the source gives them in different places.
Tests used:
Test in all cases: KiNativ kinase profiling
CaMK1d = CaMK1d (Homo sapiens (Human), UniProt Q8IU85); type: binding; conditions: Lys1, A375 cells, read-out: inhibition of kinase labeling
Erk1 = Erk1 (Homo sapiens (Human), UniProt P27361); type: binding; conditions: Lys2, A375 cells, read-out: inhibition of kinase labeling
DNAPK = DNAPK (Homo sapiens (Human), UniProt P78527); type: binding; conditions: ATP, A375 cells, read-out: inhibition of kinase labeling
PIP5K3 = PIP5K3 (Homo sapiens (Human), UniProt Q9Y2I7); type: binding; conditions: ATP, A375 cells, read-out: inhibition of kinase labeling
CSK = CSK (Homo sapiens (Human), UniProt P41240); type: binding; conditions: Activation Loop, A375 cells, read-out: inhibition of kinase labeling
HPK1 = HPK1 (Homo sapiens (Human), UniProt Q92918); type: binding; conditions: Lys1, A375 cells, read-out: inhibition of kinase labeling
SGK3 = SGK3 (Homo sapiens (Human), UniProt Q96BR1); type: binding; conditions: Lys1, A375 cells, read-out: inhibition of kinase labeling
SYK = SYK (Homo sapiens (Human), UniProt P43405); type: binding; conditions: read-out: inhibition of kinase labeling
CDK7 = CDK7 (Homo sapiens (Human), UniProt P50613); type: binding; conditions: Lys2, A375 cells, read-out: inhibition of kinase labeling
[1] = tested on: ZC1/HGK, ZC2/TNIK, ZC3/MINK; type: binding, Homo sapiens; conditions: Lys2, 1 μM, A375 cells
ZAK = ZAK (Homo sapiens (Human), UniProt Q9NYL2); type: binding
FGR = FGR (Homo sapiens (Human), UniProt P09769); type: binding; conditions: Activation Loop, A375 cells, read-out: inhibition of kinase labeling
ATR = ATR (Homo sapiens (Human), UniProt Q13535); type: binding; conditions: ATP, A375 cells, read-out: inhibition of kinase labeling
GSK3A = GSK3A (Homo sapiens (Human), UniProt P49840); type: binding; conditions: Lys2, A375 cells, read-out: inhibition of kinase labeling
MST4, YSK1 = type: binding, Homo sapiens; conditions: Lys2, 1 μM, A375 cells
ZAP70 = ZAP70 (Homo sapiens (Human), UniProt P43403); type: binding; conditions: Activation Loop, A375 cells, read-out: inhibition of kinase labeling
NEK3 = NEK3 (Homo sapiens (Human), UniProt P51956); type: binding; conditions: Activation Loop, A375 cells, read-out: inhibition of kinase labeling
ABL, ARG = type: binding, Homo sapiens; conditions: Activation Loop, 1 μM, A375 cells
JAK1 domain2 = JAK1 domain2 (Homo sapiens (Human), UniProt P23458); type: binding; conditions: Lys1, A375 cells, read-out: inhibition of kinase labeling
ACK = ACK (Homo sapiens (Human), UniProt Q07912); type: binding; conditions: Lys1, A375 cells, read-out: inhibition of kinase labeling
MAP2K7 = MAP2K7 (Homo sapiens (Human), UniProt O14733); type: binding; conditions: Lys2, A375 cells, read-out: inhibition of kinase labeling
PKN1 = PKN1 (Homo sapiens (Human), UniProt Q16512); type: binding; conditions: Lys1, A375 cells, read-out: inhibition of kinase labeling
CDK5 = CDK5 (Homo sapiens (Human), UniProt Q00535); type: binding; conditions: Lys2, A375 cells, read-out: inhibition of kinase labeling
RSK2 domain2 = RSK2 domain2 (Homo sapiens (Human), UniProt P51812); type: binding; conditions: Lys2, A375 cells, read-out: inhibition of kinase labeling
MST3 = MST3 (Homo sapiens (Human), UniProt Q9Y6E0); type: binding; conditions: Lys2, A375 cells, read-out: inhibition of kinase labeling
PIK3C3 = PIK3C3 (Homo sapiens (Human), UniProt Q8NEB9); type: binding; conditions: ATP, A375 cells, read-out: inhibition of kinase labeling
PI4KB = PI4KB (Homo sapiens (Human), UniProt Q9UBF8); type: binding; conditions: ATP, A375 cells, read-out: inhibition of kinase labeling
ILK = ILK (Homo sapiens (Human), UniProt Q13418); type: binding; conditions: Protein Kinase Domain, A375 cells, read-out: inhibition of kinase labeling
KHS1 = KHS1 (Homo sapiens (Human), UniProt Q9Y4K4); type: binding; conditions: Lys1, A375 cells, read-out: inhibition of kinase labeling
eEF2K = eEF2K (Homo sapiens (Human), UniProt O00418); type: binding; conditions: ATP, A375 cells, read-out: inhibition of kinase labeling
STLK5 = STLK5 (Homo sapiens (Human), UniProt Q7RTN6); type: binding; conditions: Activation Loop, A375 cells, read-out: inhibition of kinase labeling
FRAP = FRAP (Homo sapiens (Human), UniProt P42345); type: binding; conditions: ATP, A375 cells, read-out: inhibition of kinase labeling
AMPKa1, AMPKa2 = type: binding, Homo sapiens; conditions: Lys1, 1 μM, A375 cells
IRAK4 = IRAK4 (Homo sapiens (Human), UniProt Q9NWZ3); type: binding; conditions: Lys2, A375 cells, read-out: inhibition of kinase labeling
NEK7 = NEK7 (Homo sapiens (Human), UniProt Q8TDX7); type: binding; conditions: Lys1, A375 cells, read-out: inhibition of kinase labeling
MAP3K2, MAP3K3 = type: binding, Homo sapiens; conditions: Lys2, 1 μM, A375 cells
MAP2K4 = MAP2K4 (Homo sapiens (Human), UniProt P45985); type: binding; conditions: Lys2, A375 cells, read-out: inhibition of kinase labeling
p38d, p38g = type: binding, Homo sapiens; conditions: Lys2, 1 μM, A375 cells
CHK2 = CHK2 (Homo sapiens (Human), UniProt O96017); type: binding; conditions: Lys1, A375 cells, read-out: inhibition of kinase labeling
MARK1, MARK2 = type: binding, Homo sapiens; conditions: Lys1, 1 μM, A375 cells

Chain of ZAK (Q9NYL2 whole entry): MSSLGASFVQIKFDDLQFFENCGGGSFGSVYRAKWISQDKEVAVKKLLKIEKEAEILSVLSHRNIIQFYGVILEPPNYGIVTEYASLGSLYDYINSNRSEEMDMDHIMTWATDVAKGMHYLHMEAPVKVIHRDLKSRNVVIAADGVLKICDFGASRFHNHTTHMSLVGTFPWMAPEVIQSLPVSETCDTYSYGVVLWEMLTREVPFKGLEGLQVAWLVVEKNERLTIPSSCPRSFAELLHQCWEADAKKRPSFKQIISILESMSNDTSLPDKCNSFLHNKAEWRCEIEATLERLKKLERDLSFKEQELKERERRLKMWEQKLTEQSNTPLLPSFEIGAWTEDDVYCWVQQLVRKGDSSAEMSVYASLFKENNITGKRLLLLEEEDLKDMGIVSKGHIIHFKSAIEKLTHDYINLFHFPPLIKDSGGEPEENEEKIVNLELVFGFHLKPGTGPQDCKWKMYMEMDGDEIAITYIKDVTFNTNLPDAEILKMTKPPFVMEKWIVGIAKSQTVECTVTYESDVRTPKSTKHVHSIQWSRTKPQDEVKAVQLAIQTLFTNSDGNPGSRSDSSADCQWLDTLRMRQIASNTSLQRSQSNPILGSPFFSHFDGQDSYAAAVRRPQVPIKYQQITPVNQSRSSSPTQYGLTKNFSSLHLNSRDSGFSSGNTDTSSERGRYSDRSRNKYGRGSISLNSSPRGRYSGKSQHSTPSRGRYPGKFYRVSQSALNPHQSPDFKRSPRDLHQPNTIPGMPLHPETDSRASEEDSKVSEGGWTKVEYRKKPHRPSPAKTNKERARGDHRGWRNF
Chain of NEK7 (Q8TDX7 whole entry): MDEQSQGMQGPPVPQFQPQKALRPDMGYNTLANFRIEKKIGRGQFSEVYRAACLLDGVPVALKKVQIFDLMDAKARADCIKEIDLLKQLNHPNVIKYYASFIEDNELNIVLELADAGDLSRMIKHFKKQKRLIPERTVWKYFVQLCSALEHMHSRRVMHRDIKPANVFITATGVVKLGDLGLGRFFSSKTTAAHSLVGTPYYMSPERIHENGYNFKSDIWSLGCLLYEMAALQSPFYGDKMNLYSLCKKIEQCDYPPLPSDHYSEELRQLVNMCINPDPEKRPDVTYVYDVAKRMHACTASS
Chain of FGR (P09769 whole entry): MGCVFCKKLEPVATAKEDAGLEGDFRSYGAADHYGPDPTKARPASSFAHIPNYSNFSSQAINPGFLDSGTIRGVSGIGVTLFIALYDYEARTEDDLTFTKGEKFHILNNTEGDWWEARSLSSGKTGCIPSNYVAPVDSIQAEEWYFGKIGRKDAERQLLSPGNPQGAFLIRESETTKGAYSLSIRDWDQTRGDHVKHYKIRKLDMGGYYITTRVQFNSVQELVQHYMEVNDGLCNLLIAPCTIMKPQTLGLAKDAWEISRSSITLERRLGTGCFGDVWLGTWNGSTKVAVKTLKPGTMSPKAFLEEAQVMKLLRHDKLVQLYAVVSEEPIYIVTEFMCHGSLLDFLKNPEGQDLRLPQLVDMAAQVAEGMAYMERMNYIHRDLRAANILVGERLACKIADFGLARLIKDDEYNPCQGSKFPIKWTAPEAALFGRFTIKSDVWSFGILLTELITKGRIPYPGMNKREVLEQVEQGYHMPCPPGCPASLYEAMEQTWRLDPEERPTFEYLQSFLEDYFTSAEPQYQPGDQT
Chain of PIK3C3 (Q8NEB9 whole entry): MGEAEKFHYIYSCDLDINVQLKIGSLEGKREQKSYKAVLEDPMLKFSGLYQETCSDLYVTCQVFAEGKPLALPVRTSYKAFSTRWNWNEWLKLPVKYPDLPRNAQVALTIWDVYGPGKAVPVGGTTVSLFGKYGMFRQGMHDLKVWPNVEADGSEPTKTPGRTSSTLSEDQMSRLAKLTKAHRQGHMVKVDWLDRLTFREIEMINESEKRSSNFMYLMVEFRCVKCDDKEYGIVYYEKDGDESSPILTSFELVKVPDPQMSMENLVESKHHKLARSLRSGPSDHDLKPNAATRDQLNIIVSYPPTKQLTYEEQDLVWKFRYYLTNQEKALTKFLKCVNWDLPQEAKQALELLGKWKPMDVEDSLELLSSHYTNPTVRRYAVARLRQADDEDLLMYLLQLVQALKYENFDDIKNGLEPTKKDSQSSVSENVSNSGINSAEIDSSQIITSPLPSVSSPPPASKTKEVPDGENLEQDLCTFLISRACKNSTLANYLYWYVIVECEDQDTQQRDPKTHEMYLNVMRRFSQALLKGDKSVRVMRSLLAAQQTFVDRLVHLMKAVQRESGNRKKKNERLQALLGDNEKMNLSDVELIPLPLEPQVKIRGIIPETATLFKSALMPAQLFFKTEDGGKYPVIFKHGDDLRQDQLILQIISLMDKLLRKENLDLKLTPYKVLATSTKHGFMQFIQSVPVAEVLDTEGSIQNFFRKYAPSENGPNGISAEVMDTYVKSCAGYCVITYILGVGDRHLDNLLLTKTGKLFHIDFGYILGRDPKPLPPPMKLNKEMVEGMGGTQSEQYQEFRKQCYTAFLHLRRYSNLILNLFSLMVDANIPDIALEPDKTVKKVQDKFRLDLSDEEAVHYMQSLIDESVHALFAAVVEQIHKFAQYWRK
Chain of MAP2K4 (P45985 whole entry): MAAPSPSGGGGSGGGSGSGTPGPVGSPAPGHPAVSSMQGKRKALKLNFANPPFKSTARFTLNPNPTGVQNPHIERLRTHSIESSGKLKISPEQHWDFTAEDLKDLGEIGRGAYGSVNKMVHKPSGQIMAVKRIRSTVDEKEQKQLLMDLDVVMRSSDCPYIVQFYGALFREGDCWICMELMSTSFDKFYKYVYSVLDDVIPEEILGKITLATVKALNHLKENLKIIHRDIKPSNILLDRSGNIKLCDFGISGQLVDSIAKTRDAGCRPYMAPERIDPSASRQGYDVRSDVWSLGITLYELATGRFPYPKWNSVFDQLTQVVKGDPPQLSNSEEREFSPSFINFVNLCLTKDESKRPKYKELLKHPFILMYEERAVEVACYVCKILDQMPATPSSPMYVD
Chain of ZAP70 (P43403 whole entry): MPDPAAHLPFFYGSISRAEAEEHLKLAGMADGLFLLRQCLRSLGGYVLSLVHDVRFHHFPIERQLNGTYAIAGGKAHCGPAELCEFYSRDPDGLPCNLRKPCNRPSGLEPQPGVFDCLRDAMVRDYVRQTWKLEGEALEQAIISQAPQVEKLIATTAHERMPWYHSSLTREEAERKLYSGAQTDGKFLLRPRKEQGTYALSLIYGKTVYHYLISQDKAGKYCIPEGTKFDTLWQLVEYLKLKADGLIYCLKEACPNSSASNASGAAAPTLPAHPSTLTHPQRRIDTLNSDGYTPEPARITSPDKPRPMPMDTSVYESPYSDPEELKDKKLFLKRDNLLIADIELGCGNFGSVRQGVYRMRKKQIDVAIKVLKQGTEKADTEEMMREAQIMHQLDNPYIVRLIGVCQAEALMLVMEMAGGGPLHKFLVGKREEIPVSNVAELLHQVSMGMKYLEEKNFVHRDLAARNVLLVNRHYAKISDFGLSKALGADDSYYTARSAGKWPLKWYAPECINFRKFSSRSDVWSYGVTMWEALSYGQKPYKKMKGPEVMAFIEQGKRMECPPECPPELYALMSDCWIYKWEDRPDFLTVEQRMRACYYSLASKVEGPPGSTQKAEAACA
Chain of ACK (Q07912 whole entry): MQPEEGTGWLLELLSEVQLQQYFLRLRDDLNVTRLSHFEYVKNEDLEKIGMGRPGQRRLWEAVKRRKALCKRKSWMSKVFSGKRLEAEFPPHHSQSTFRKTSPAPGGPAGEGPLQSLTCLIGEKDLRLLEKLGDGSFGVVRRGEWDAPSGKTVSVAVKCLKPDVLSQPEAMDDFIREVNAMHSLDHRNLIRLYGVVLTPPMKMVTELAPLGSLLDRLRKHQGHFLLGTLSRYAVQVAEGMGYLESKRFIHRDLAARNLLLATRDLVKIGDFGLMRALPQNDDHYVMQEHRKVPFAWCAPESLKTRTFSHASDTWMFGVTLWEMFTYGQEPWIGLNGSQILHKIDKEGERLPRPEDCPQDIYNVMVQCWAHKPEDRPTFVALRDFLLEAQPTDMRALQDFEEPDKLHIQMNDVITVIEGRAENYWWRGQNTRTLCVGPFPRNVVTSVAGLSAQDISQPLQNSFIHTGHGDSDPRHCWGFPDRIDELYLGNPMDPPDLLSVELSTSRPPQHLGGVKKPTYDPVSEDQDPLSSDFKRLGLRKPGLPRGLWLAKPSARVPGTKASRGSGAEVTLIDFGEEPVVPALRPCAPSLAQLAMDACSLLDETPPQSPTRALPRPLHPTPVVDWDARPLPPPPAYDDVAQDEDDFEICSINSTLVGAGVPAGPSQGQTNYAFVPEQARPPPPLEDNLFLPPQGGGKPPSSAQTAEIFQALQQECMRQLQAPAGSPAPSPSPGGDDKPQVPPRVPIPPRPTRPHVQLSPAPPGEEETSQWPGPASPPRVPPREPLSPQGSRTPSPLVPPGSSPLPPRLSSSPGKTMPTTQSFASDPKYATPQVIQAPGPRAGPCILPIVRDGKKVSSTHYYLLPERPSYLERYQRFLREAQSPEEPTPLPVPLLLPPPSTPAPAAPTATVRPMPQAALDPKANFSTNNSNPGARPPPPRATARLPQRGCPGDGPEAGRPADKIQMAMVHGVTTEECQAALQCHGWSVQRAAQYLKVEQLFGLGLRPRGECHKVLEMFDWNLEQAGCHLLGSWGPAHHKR
Chain of ILK (Q13418 whole entry, the tested form may be a part): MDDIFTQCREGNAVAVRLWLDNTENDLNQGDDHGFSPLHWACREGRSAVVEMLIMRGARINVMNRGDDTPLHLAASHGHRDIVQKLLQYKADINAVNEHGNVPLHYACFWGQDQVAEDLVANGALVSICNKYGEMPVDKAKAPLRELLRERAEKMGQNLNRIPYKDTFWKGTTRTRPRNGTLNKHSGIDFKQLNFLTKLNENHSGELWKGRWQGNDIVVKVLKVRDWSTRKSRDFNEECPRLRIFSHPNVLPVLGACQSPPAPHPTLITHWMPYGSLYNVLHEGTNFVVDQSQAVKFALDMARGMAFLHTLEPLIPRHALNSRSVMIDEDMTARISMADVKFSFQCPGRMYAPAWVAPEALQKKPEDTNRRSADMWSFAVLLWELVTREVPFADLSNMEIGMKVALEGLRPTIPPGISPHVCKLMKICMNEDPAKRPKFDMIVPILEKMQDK

With `Cc1ccc(C(=O)Nc2cccc(C(C)(C)C#N)c2)cc1NC(=O)c1cncc(-c2cccs2)c1` [I-6, N-(5-((3-(2-cyanopropan-2-yl)phenyl)carbamoyl)-2-methylphenyl)-5-(thiophen-2-yl)nicotinamide] the inhibition at 1 µM (CaMK1d) was -17.8%, the inhibition at 1 µM (Erk1) was -3% and the inhibition at 1 µM (DNAPK) was 4.6%. For the same compound, the inhibition at 1 µM (PIP5K3) was 17.8%, the inhibition at 1 µM (CSK) was 23.3% and the inhibition at 1 µM (HPK1) was 7.5%. It also gave an inhibition at 1 µM (SGK3) of -7.2%, an inhibition at 1 µM (SYK; Activation Loop, A375 cells) of -7.9% and an inhibition at 1 µM (SYK; Lys1, A375 cells) of -38.5%. The inhibition at 1 µM (CDK7) was -6.8%, the “inhibition of kinase labeling” value [1] was 27% and the “inhibition of kinase labeling” value (ZAK; Lys1, 1 μM, A375 cells) was >95%. For the same compound, the inhibition at 1 µM (ZAK; Lys1, A375 cells, read-out: inhibition of kinase labeling) was > 95%, the inhibition at 1 µM (FGR) was 3.5% and the inhibition at 1 µM (ATR) was 26.2%. The inhibition at 1 µM (GSK3A) was 17.3%, the “inhibition of kinase labeling” value (MST4, YSK1) was 22% and the inhibition at 1 µM (ZAP70) was 7.5%. The inhibition at 1 µM (NEK3) was 10%, the “inhibition of kinase labeling” value (ABL, ARG) was >90% and the inhibition at 1 µM (JAK1 domain2) was 3.3%. It also gave an inhibition at 1 µM (ACK) of -1.2%, an inhibition at 1 µM (MAP2K7) of -3% and an inhibition at 1 µM (PKN1) of -35.2%. The inhibition at 1 µM (CDK5) was 9.3%, the inhibition at 1 µM (RSK2 domain2) was -15.8% and the inhibition at 1 µM (MST3) was -0.4%. It also gave an inhibition at 1 µM (PIK3C3) of -23.1%, an inhibition at 1 µM (PI4KB) of -15.1% and an inhibition at 1 µM (ILK) of 17.2%. It also gave an inhibition at 1 µM (KHS1) of -21.8%, an inhibition at 1 µM (eEF2K) of 12% and an inhibition at 1 µM (STLK5) of -17.8%. The inhibition at 1 µM (FRAP) was -8.8%, the “inhibition of kinase labeling” value (AMPKa1, AMPKa2) was 15.3% and the inhibition at 1 µM (IRAK4) was -1.4%. For the same compound, the inhibition at 1 µM (NEK7) was 10.7%, the “inhibition of kinase labeling” value (MAP3K2, MAP3K3) was −15.3% and the inhibition at 1 µM (MAP2K4) was -14.6%. The “inhibition of kinase labeling” value (p38d, p38g) was 17.8%, the inhibition at 1 µM (CHK2) was 4.7% and the “inhibition of kinase labeling” value (MARK1, MARK2) was −4.9%.
